Data taken from US20090169642A1, “RECONSTRUCTED LIVING ADIPOSE TISSUE” (priority 2005, published 2009).

What was measured:
[1] = tested on: tissue-engineered adipose sheets; assay: Lipolysis measurements (glycerol release from adipose tissue sheets); type: cell-based, human
Experimental: Lipolysis measurements. The lipolytic cell response of the adipose tissue sheets cultured for 27 days was assessed by measuring the amount of glycerol released into the incubation medium after treatment with 1 μM isoproterenol or its appropriate vehicle control. The tissues were previously incubated in serum-free medium for a minimum of 2 days to avoid interference with serum factors, and rinsed with serum-free medium before the assay. After 1, 2, 4 and 24 hours, the conditioned medium was immediately tested for the release of glycerol using an enzyme-coupled glycerol assay based on a colorimetric quantification (Sigma).

[2] = tested on: adipose-derived stromal cells; assay: Quantification of adipose differentiation by Oil Red O staining; type: cell-based, human; conditions: fresh stromal cells not submitted to freezing, medium with vs without ascorbic acid
Experimental: Quantification of adipose differentiation. After 14 days of differentiation, independently of the time spent in culture before the time of adipogenic induction, Oil Red 0 (ORO) staining of the cytoplasmic neutral lipids of the droplets were performed according to a modification from [Kuri-Harcuch W et al. 1978; 75(12):6107-9, Ramirez-Zacarias J L et al. Histochemistry 1992; 97(6):493-7]. Briefly, cultures were rinsed, fixed with 10% buffered formalin, stained with 0.3% ORO in isopropanol and extracted with 4% Nonidet/isopropanol for quantification at 520 nm using a SpectraMax Plus™ spectrometer (Molecular Device) with SoftmaxPro™ Ver 4.7.1.

| SMILES | time of peak in glycerol release post-stimulation ([1]; 1 μm isoproterenol, LA adipose tissue sheet cells in P3, adipocytes differentiated for 20 days, relative to basal levels) [h] | lipolytic activation (hydrolysis of triglycerides into fatty acids and glycerol) ([1]; isoproterenol 1 μM, adipose constructs from lipoaspirated fat in P3, 20 days of in vitro differentiation) | adipocyte differentiation (ORO staining) [2] |
| --- | --- | --- | --- |
| CC(C)NCC(O)c1ccc(O)c(O)c1 (stereo not drawn) [Isoproterenol] | 2 | induced the hydrolysis of triglycerides | – |
| O=C1O[C@H]([C@@H](O)CO)C(O)=C1O [ascorbic acid] | – | – | can promote adipocyte differentiation |
